Experimental data: patent US20240148745A1, “COMPOUNDS FOR USE IN PROGRESSIVE MULTIPLE SCLEROSIS” (FONDAZIONE CENTRO SAN RAFFAELE, priority 2021, published 2024)

Key:
rat primary OPC cultures = experiment: Differentiation of rat primary OPC into MBP+ OLs; assay type: cell-based; conditions: 96 h, 4 days of differentiation, read-out: MBP+ differentiation (MBP+/SOX10+ OLs plus compounds / plus basal medium)
Outline: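 Primary rat OPCs were differentiated for 4 days with compounds at […], in triplicate over 3 independent experiments. Cells were immunolabelled for CNPase, MBP and SOX10, and MBP+ oligodendrocytes were counted by imaging. Results are fold increase in MBP+/SOX10+ cells over basal medium; 9-cis-RA ([…]) was the positive control.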

[1] = system: iPSC-derived glutamatergic neurons; experiment: ROS (tBuOOH)-mediated neuroprotective assay on hNeu; assay type: cell-based, human
Procedure: Neuroprotective experiments were performed using iPSC-derived glutamatergic neurons from 3 healthy controls cultured for 30-40 DIV. Cells were pre-treated for 24 h with […] of compounds, vehicle (DMSO) or 5 nM Mito-Q (mitoquinone) served as a positive control. On the next day cells were incubated for 2 h with 100 µM of tert-butyl peroxide (tBuOOH, Sigma), then the medium was replaced and the viability readout by CCK8 viability assay kit (Dojindo) was performed on the following day. The cell viability was expressed as normalized Z score and compared to tBuOOH-treated cells with nonparametric Kruskal-Wallis test with Dunn's multiple comparisons correction.
32 “Front runners” and 7 compounds from short list were tested on iPSC-derived neurons from three control lines in ROS-mediated assay to evaluate a neuroprotective potential of selected compounds. Three independent experiments were performed for CTR4 and CTR8, FIG. 20 (A, C), while two independent experiments were performed for CTR7, FIG. 20 (B).

[2] = system: primary murine spinal cord culture; experiment: Myelinating cell cultures from primary murine spinal cord; assay type: cell-based, mouse; conditions: 1 μM
Procedure: Single cell suspensions are prepared from spinal cord of mouse embryos (E13) (adapted from Thomson, 2008) and 1.5×10^5 cells/well were plated into 96 well plates. Over time, these cultures mature and form axons, which later myelinate. Using spinal cord tissue facilitates the quantification of mature MBP+ oligodendrocytes and newly formed myelin by in-house high-content imaging system (Operetta High Content Imaging System, Perkin Elmer) with a 20× lens. From each well, 25 fields in a 5×5 matrix were scanned. Thirty-two “Front Runners” compounds were tested in replicates of five at 1 μM/DMSO, while T3, benzotropine and clemastine were used as positive controls, DMSO as negative/solvent control. Two experimental paradigms were applied: “Early treatment”: exposure to experimental agent from DIV7 to DIV14; “Late treatment”: exposure to experimental agent from DIV14-DIV21. On DIV21, cultures were fixed and stained (myelin: MBP, axons: NF200; nuclei: Hoechst). Imaging data were analysed using CellProfiler and in-house generated analysis pipeline.
Thirty-two “Front Runners” compounds were tested in replicates of five at 1 μM/DMSO, while T3, benztropine and clemastine were used as positive controls, DMSO as negative/solvent control. Two experimental paradigms were applied: “Early treatment”: exposure to experimental agent from DIV7 to DIV14; “Late treatment”: exposure to experimental agent from DIV14-DIV21. […] In “Late treatment” paradigm in myelin area evaluation were identified Vanoxerine, Roxadustat, Tamibarotene, Drinabant, Progesterone, Saracatinib. In quantification of myelinated axons were identified Vanoxerine, Drinabant, Roxadustat.

[3] = system: H9-derived human neural stem cells; experiment: Neurotoxic or regenerative effect screening (CellTiter-Glo); assay type: cell-based; conditions: 10 μM, three independent screenings
Procedure: H9-derived human neural stem cells (H9 hNSCs, Gibco) were cultured according to the manufacturer's instructions. Briefly, H9 hNSCs were expanded and subsequently differentiated in neurobasal medium, 2% B27, 1% Glutamax, and 1% penicillin/streptomycin, supplemented with 10 ng/ml BDNF (Peprotech), and 2 ng/ml recombinant human GDNF (Peprotech). After 7 days, 500 μM of db-cAMP (N6,2′-O-dibutyryladenosine 3′,5′-cyclic monophosphate, Sigma) was added.
The metabolic activity/viability of selected compounds (32 “Front Runners”+24 compounds from the “Short list”) was evaluated by CellTiter-Glo® Luminescent Cell Viability Assay. The primary screen of Front Runner List (32 compounds)+24 compounds from Short List) on H9-derived human neurons was performed at 10 μM concentration. The validation of hits from primary screen on H9-derived human neurons was performed at 10 μM concentration.
32 Front Runners were tested at 10 μM on H9-derived human neuronal cultures and viability was evaluated by CellTiter-Glo® Luminescent Cell Viability Assay.

[4] = system: murine cortical neurons (14 DIV); experiment: NMDA-mediated neuroprotective assay (CCK8 viability); assay type: cell-based, mouse; conditions: 1 μM, 3 h pre-treatment, NMDA 8 μM 24 h, p<0.05
Outline: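 Primary murine cortical neurons pre-treated with 1 μM compound for 3 or 24 h, then exposed to 8 μM NMDA for 24 h. Viability read by CCK-8 and expressed relative to NMDA-only control; vehicle 0.02% DMSO.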

[5] = control line CTR4, 1 μM, p<0.05
[6] = summary for all three control lines

`O=C(c1ccc(CN2CCOCC2)cc1)N1CCN(C2CC2)CC1` [Bavisant] was tested, and the fold induction at 1 µM (rat primary OPC cultures) was > 1.6.
For `CC(=O)N1CCN([C@H]2CCN(C(=O)N(C)[C@H](C)c3cc(C(F)(F)F)cc(C(F)(F)F)c3)[C@@H](c3ccc(F)cc3C)C2)CC1` [Casopitant], the fold induction at 1 µM (rat primary OPC cultures) was > 1.6, the “protection from tBuOOH insult” value [1, 5] was “protected from tBuOOH insult” and the “protection from tBuOOH insult” value ([1]; control line CTR7, p=0.07) was “trend to significance”. For the same molecule, the “protection from tBuOOH insult” value [1, 6] was “potential neuroprotective effect from tBuOOH-mediated insult”, the myelin area ([2]; Early treatment DIV7 to DIV14) was “identified” and the “quantification of myelinated axons” value ([2]; Early treatment DIV7 to DIV14) was “identified”. For the same molecule, the “cumulative Z-scores of ATP production/viability” value [3] was “potential hits”.
`CCOC(=O)[C@@H](N)CCC(=O)N[C@@H](CSCc1ccccc1)C(=O)N[C@@H](C(=O)OCC)c1ccccc1.Cl` [Ezatiostat hydrochloride, Ezatiostat Hydrochloride] was tested, and the “neuroprotection of viability/metabolic activity against NMDA” value [4] was “hit compounds”, the “protection from tBuOOH insult” value [1, 6] was “potential neuroprotective effect from tBuOOH-mediated insult” and the “cumulative Z-scores of ATP production/viability” value [3] was “potential hits”.
With `C[C@H](Nc1cc(-c2cnn(C)c2)cc(Nc2cnccn2)n1)c1ccc(F)cc1` [NS-018] the “protection from tBuOOH insult” value [1, 5] was “protected from tBuOOH insult”, the “protection from tBuOOH insult” value ([1]; control line CTR8, p<0.05) was “potential neuroprotective compound from tBuOOH-mediated insult” and the “protection from tBuOOH insult” value [1, 6] was “potential neuroprotective effect from tBuOOH-mediated insult”. For the same molecule, the myelin area ([2]; Early treatment DIV7 to DIV14) was “identified” and the “quantification of myelinated axons” value ([2]; Early treatment DIV7 to DIV14) was “identified”.
With `NCCCC[C@H](NC(=O)[C@@H](Cc1cc(Br)c(O)c(Br)c1)NC(=O)N1CCC(N2Cc3ccccc3NC2=O)CC1)C(=O)N1CCN(c2ccncc2)CC1` [Olcegepant] the fold induction at 1 µM (rat primary OPC cultures) was > 1.6 and the “protection from tBuOOH insult” value [1, 6] was “potential neuroprotective effect from tBuOOH-mediated insult”.
With `O=C(NOC[C@H](O)CO)c1ccc(F)c(F)c1Nc1ccc(I)cc1F` [PD-0325901] the fold induction at 1 µM (rat primary OPC cultures) was > 1.6 and the “cumulative Z-scores of ATP production/viability” value [3] was “potential hits”.
`CC(=O)[C@H]1CC[C@H]2[C@@H]3CCC4=CC(=O)CC[C@]4(C)[C@H]3CC[C@]12C` [Progesterone] was tested, and the “neuroprotection of viability/metabolic activity against NMDA” value [4] was “hit compounds”, the myelin area ([2]; Early treatment DIV7 to DIV14) was “identified” and the myelin area ([2]; Late treatment DIV14-DIV21) was “identified”.
`CC1(C)CCC(C)(C)c2cc(NC(=O)c3ccc(C(=O)O)cc3)ccc21` [Tamibarotene] was tested, and the fold induction at 1 µM (rat primary OPC cultures) was > 1.6, the “neuroprotection of viability/metabolic activity against NMDA” value [4] was “hit compounds” and the myelin area ([2]; Early treatment DIV7 to DIV14) was “identified”. The myelin area ([2]; Late treatment DIV14-DIV21) was “identified”.
